# From article PMC10359466, “Identification of a small-molecule inhibitor that selectively blocks DNA-binding by Trypanosoma brucei replication protein A1” (Nature Communications, 2023)
# pIC50: −log10 of the molar value. “Also recorded” adds a separate entry of the source.
# How the values were obtained:
# [1] = test system: human non-small cell lung cancer H460 cells; conditions: read-out: IC50, inhibition of proliferation; cited from earlier work
# [2] = test system: T. brucei cells; test: AlamarBlue cell viability / growth inhibition of T. brucei; conditions: 10 to 60 μM, even at 60 µM, 72 h
# Protocol: Synergy H1 microplate reader (BioTek) was used with 560/590 nm (excitation/emission) filter settings and relative fluorescence unit (RFU) values were obtained. The percentage of viable cells were calculated from the RFU values.
# Trypanosome cells were seeded at 1 × 10^3 cells/ml density in 180 µl in a 96-well culture plate in triplicate. […] DMSO was used as a vehicle control at 0.0075%.
smiles,measurement,setting,value
"CCOc1ccc2cc(C3CC(c4ccc(Br)cc4)=NN3C(=O)CCC(=O)O)c(Cl)nc2c1 (centres unmarked) [TDRL-505, reference compound]",pIC50,[1],4.51
same,Effect on T. brucei proliferation,[2],did not observe any effect; also recorded: did not show any toxicity
